Experimental data as given in patent publication US20200140446A1, “5,8-DIMETHYL-2-[2-(1-METHYL-4-PHENYL-1H-IMIDAZOL-2-YL)-ETHYL]-[1,2,4]TRIAZOLO[1,5-A]PYRAZINE HEMIADIPATE” (H. Lundbeck A/S, priority 2018, published 2020).
Marks after values point to notes of the source that are not given here.

How the values were obtained:
[1] = Dynamic Vapour Sorption (DVS), hygroscopicity; assay type: physicochemical; conditions: for Hygroscopic (Yes/No): summary of solid forms of Compound (I), Table 2; for hygroscopicity (DVS conclusion): RH 0% to 95%, 25° C.
From the text: The vapour sorption can be investigated by DVS analysis.
The vapour sorption was investigated by DVS analysis.

[2] = Hydrate formation (precipitation from water / storage at 95% RH, XRPD); assay type: physicochemical; conditions: for Hydrate formation (Yes/No): summary of solid forms of Compound (I), Table 2
From the text: To determine whether the Compound (I) hemiadipate are prone to form hydrates it was investigated if precipitation from water equilibrated over 7 days led to a new crystal form. In addition, it was explored if storage of Compound (I) hemiadipate at 95% RH for 5 months led to change in the crystal form.

[3] = Intrinsic Dissolution Rate (IDR); assay type: physicochemical; conditions: 37° C., 10 mg tablet, duplicates
Description: Tablets of 10 mg Compound (I) (free base or hemiadipate) were pressed and put into a micro dissolution chamber. It was subsequently measured how fast the substance was dissolved from the well-defined surface of the tablet into the solvent. The length of a full dissolution experiment was 20 min and the IDR was calculated in the range 1-2.5 min, determined as the slope of the dissolution profile in that specific range. The experiment at pH 2 was performed in 0.01 N HCl, at pH 5 in 50 mM acetate buffer and at pH 6.8 in 50 mM phosphate buffer, respectively, all at 37° C. All experiments were performed in duplicates.
Where the tablet was not fully dissolved after end of experiment, the surface was examined by XRPD, to identify if any changes of solid form have occurred during the experiment.

[4] = Solvate formation (shake-flask precipitation in organic solvents, XRPD); assay type: physicochemical; conditions: 16 organic solvents, equilibration for 4 days
From the text: To determine whether the Compound (I) hemiadipate forms solvates it was investigated if solvate formation could be observed from precipitation in different organic solvents after equilibration for 4 days in the shake-flask method: Compound (I) hemiadipate was precipitated in various organic solvents from a 1:1 mixture of Compound (I) and adipic acid. The tested solvents were: acetone, acetonitrile, methanol, ethanol, 1-propanol, 2-propanol, 1-butanol, 2-butanol, ethyl acetate, isopropyl acetate, methyl isobutyl ketone, tetrahydrofuran, diethylether, N-methylpyrrolidone, dichloromethane, and n-heptane.

rats = assay: Conditioned Avoidance Response (CAR) in rats, high dopamine state; assay type: in vivo
From the text: The inventors of the present invention put forward the hypothesis that many patients with exacerbated positive symptoms can be expected to have increased striatal dopamine levels. Since the dopamine receptors regulate the dopamine signal by controlling cAMP synthesis and PDE10A regulates the gain of this signal by controlling cAMP degradation, the effect of PDE10A inhibition might be altered in conditions with increased striatal dopamine tonus, such as found in patients with prominent positive symptoms. To investigate this further the effect of compounds of the invention were tested in the CAR assay in rats that were co-dosed with a low dose of d-amphetamine (0.20-0.25 mg/kg) to induce a high dopamine state (FIG. 4). […] Compound (I) was tested alone and in combination with a low dose d-amphetamine to induce a high dopamine state. The efficacy was measured as the mean number of avoidances and results are depicted as mean+/−SEM. […] Bars represent the following dose groups (left to right): 1) Vehicle; 2) d-amphetamine (0.2 mg/kg); 3) Compound (I) (0.6 mg/kg); 4) Compound (I) (0.3 mg/kg)+d-amphetamine (0.2 mg/kg); 5) Compound (I) (0.6 mg/kg)+d-amphetamine (0.2 mg/kg); and 6) Compound (I) (3.0 mg/kg)+d-amphetamine (0.2 mg/kg). ** p<0.01 compared to vehicle. ns=non-significant.

For `O=C(O)CCC(=O)C(=O)O` [2-oxoglutarate], the “Hygroscopic (Yes/No)” value [1] was “Yes” and the “Hydrate formation (Yes/No)” value [2] was “Yes”.
With `Cc1ncc(C)n2nc(CCc3nc(-c4ccccc4)cn3C)nc12` [Compound (I) hemiadipate, 5,8-Dimethyl-2-[2-(1-methyl-4-phenyl-1H-imidazol-2-yl)-ethyl]-[1,2,4]triazolo[1,5-a]pyrazine hemiadipate] the “IDR Average” value ([3]; pH 2, 0.01 N HCl) was >2* mg/cm^2 × min, the “IDR Average” value ([3]; pH 5, 50 mM acetate buffer) was 0.3 mg/cm^2 × min and the “IDR Average” value ([3]; pH 6.8, 50 mM phosphate buffer) was 0.04 mg/cm^2 × min. The vapour sorption ([1]; DVS, 95% RH at 25° C.) was “less than 0.1%”, the “hygroscopicity (DVS conclusion)” value ([1]; DVS) was “non-hygroscopic” and the “Hygroscopic (Yes/No)” value [1] was “No”. The solvate formation [4] was “does not form solvates”, the “change of crystal form after storage at 95% RH” value ([2]; 95% RH for 5 months, XRPD) was “had not changed from the original form” and the “Hydrate formation (Yes/No)” value [2] was “No”. The “change of crystal form after precipitation from water” value ([2]; water, equilibrated over 7 days, XRPD) was “had not changed from the original form”.
For `Cc1ncc(C)n2nc(CCc3nc(-c4ccccc4)cn3C)nc12` [Compound (I), 5,8-Dimethyl-2-[2-(1-methyl-4-phenyl-1H-imidazol-2-yl)-ethyl]-[1,2,4]triazolo[1,5-a]pyrazine], the “IDR Average” value ([3]; pH 2, 0.01 N HCl, listed as Compound (I) free base) was 1.45 mg/cm^2 × min, the “IDR Average” value ([3]; pH 5, 50 mM acetate buffer, listed as Compound (I) free base) was 0.101 mg/cm^2 × min and the “IDR Average” value ([3]; pH 6.8, 50 mM phosphate buffer, listed as Compound (I) free base) was 0.025 mg/cm^2 × min. The “hygroscopicity (DVS conclusion)” value ([1]; DVS, listed as free base) was “very hygroscopic”, the “Hygroscopic (Yes/No)” value ([1]; listed as Free base) was “Yes” and the “Hydrate formation (Yes/No)” value ([2]; listed as Free base) was “Yes”. For the same compound, the “effect on CAR (mean number of avoidances), combined with d-amphetamine” value (rats; Compound (I) 0.3, 0.6, 3.0 mg/kg + d-amphetamine 0.2 mg/kg (high dopamine state)) was “this effect was abolished” and the “effect on CAR (mean number of avoidances), dosed alone” value (rats; Compound (I) alone (0.6 mg/kg), ** p<0.01 compared to vehicle) was “reduced CAR”.
With `Cc1ncc(C)n2nc(CCc3nc(-c4ccccc4)cn3C)nc12.O=C[C@H](O)[C@@H](O)[C@H](O)[C@H](O)C(=O)O` [D-glucoronate] the “Hygroscopic (Yes/No)” value [1] was “Yes” and the “Hydrate formation (Yes/No)” value [2] was “Yes”.
In the case of `O=P(O)(O)O` [Dihydrogen Phosphate], the “Hydrate formation (Yes/No)” value [2] is reported as “Yes”.
For `Br.Cc1ncc(C)n2nc(CCc3nc(-c4ccccc4)cn3C)nc12` [Hydrogen Bromide], the “Hygroscopic (Yes/No)” value [1] was “Yes” and the “Hydrate formation (Yes/No)” value [2] was “Yes”.
In the case of `Cl` [Hydrogen Chloride], the “Hygroscopic (Yes/No)” value [1] is reported as “Yes” and the “Hydrate formation (Yes/No)” value [2] is reported as “Yes”.
For `Cc1ncc(C)n2nc(CCc3nc(-c4ccccc4)cn3C)nc12.O=S(=O)(O)O` [Hydrogen sulphate], the “Hydrate formation (Yes/No)” value [2] was “Yes”.
With Citrate the “Hygroscopic (Yes/No)” value [1] was “Yes” and the “Hydrate formation (Yes/No)” value [2] was “Yes”.
With Fumarate the “Hydrate formation (Yes/No)” value [2] was “Yes”.
With Glutarate the “Hydrate formation (Yes/No)” value [2] was “Yes”.
For L(+)-tartrate, the “Hydrate formation (Yes/No)” value [2] was “Yes”.
In the case of L(−)-malate, the “Hygroscopic (Yes/No)” value [1] is reported as “Yes” and the “Hydrate formation (Yes/No)” value [2] is reported as “Yes”.
With Maleate the “Hygroscopic (Yes/No)” value [1] was “Yes” and the “Hydrate formation (Yes/No)” value [2] was “Yes”.
In the case of Malonate, the “Hygroscopic (Yes/No)” value [1] is reported as “Yes” and the “Hydrate formation (Yes/No)” value [2] is reported as “Yes”.
For Oxalate, the “Hygroscopic (Yes/No)” value [1] was “Yes” and the “Hydrate formation (Yes/No)” value [2] was “Yes”.
With Tosylate the “Hygroscopic (Yes/No)” value [1] was “Yes” and the “Hydrate formation (Yes/No)” value [2] was “Yes”.
